Experimental data published in patent publication US7713994B2 (Wyeth LLC, priority 2005, dated 2010).
Read-outs that look alike come from different tables or passages of the source.

Columns and labels:
[1] = tested on: BT474; assay: Cytotoxicity assay (SRB), BT474; type: cell-based
Outline: (§1)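 Cells grown in RPMI 1640 with 5% FBS were treated with compound for three days (HCT-116, LoVo, MCF-7) or six days (BT474). Viable cell mass was quantified by sulforhodamine B staining of TCA-fixed protein and read at 540 nm.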

[2] = target: T1, cyclin D1/cdk 4 enzyme (Homo sapiens, UniProt P11802); assay: CDK4 ELISA kinase assay (phospho-Rb ser 795 detection); type: biochemical
T1 construct: made in house; host or cells: Sf9 insect cells, recombinant baculovirus
T1 sequence (P11802 whole entry, species assumed): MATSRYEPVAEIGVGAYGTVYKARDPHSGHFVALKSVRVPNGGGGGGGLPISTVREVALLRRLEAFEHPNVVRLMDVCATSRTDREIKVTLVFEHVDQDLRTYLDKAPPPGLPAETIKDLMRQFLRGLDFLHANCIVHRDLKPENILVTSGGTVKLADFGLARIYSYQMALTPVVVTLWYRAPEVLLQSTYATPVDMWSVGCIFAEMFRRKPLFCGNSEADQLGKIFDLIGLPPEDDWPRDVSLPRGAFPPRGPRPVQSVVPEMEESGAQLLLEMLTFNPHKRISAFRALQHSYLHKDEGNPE
T1 sequence (P24385 whole entry partner, species assumed): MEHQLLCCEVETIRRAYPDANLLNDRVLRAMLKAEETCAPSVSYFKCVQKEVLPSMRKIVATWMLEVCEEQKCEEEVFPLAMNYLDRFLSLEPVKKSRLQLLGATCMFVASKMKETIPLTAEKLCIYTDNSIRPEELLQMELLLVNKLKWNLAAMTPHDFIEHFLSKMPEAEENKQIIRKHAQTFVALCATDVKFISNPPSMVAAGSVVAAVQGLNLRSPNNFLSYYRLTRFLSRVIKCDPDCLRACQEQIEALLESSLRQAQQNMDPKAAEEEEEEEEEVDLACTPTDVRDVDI
Outline: (§2)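 ELISA format: plate-bound GST-Rb, 200 μM ATP, Sf9 cyclin/CDK enzyme, 1 h at 30° C; then anti-pRb Ser795 primary overnight at 4° C, HRP secondary, TMB. IC50 after no-substrate background subtraction.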

[3] = target: T2, cyclin B/CDK1 enzyme (Homo sapiens, UniProt P06493); assay: CDK1 ELISA kinase assay (phospho-Rb ser 795 detection); type: biochemical
T2 construct: purchased New England BioLabs; host or cells: Sf9 insect cells, recombinant baculovirus
T2 sequence (P06493 whole entry): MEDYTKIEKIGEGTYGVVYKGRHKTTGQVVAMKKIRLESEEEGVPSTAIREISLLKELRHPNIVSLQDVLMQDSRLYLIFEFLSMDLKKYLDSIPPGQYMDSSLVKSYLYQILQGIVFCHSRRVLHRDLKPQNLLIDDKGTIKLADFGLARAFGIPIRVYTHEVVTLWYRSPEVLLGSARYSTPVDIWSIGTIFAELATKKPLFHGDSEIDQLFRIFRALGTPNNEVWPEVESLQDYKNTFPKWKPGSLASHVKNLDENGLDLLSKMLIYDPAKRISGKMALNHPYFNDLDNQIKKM
T2 sequence (P14635 whole entry partner): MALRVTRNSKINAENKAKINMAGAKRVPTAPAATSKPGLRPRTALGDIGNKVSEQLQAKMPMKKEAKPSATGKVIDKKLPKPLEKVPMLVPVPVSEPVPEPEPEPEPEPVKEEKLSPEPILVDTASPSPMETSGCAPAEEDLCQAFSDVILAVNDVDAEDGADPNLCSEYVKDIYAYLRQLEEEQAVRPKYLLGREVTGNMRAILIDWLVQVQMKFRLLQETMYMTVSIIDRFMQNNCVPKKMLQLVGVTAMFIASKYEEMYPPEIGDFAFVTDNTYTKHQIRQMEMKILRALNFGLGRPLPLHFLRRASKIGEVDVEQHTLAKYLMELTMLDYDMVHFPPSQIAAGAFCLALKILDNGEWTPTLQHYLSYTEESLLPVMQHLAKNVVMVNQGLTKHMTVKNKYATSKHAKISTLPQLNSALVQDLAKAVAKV
Outline: as §2

[4] = tested on: MCF-7; assay: Cytotoxicity assay (SRB), MCF-7; type: cell-based; conditions: Homo sapiens, MCF7, 72 h, MCF-7 cells, SRB, read-out: In Vitro Cellular Activity IC50 MCF-7
Outline: as §1

[5] = tested on: LoVo; assay: Cytotoxicity assay (SRB), LoVo; type: cell-based; conditions: Homo sapiens, LoVo, 72 h, LoVo cells, SRB, read-out: In Vitro Cellular Activity IC50 LOVO
Outline: as §1

[6] = target: T3, cyclin E/CDK2 enzyme (Homo sapiens, UniProt P24941); assay: CDK2 ELISA kinase assay (phospho-Rb ser 795 detection); type: biochemical
T3 construct: made in house; host or cells: Sf9 insect cells, recombinant baculovirus
Outline: as §2

[7] = tested on: HCT-116; assay: Cytotoxicity assay (SRB), HCT-116; type: cell-based; conditions: Homo sapiens, HCT-116, 72 h, HCT116 cells, SRB, read-out: In Vitro Cellular Activity IC50 HCT116
Outline: as §1

[8] = Homo sapiens, BT-474, 144 h, BT474 cells, SRB, 6 days; read-out: In Vitro Cellular Activity IC50 BT474
[9] = In Vitro Enzyme Assays, 200 μM ATP, read-out: CDK4 IC50
[10] = In Vitro Enzyme Assays, read-out: CDK1 IC50
[11] = In Vitro Enzyme Assays, read-out: CDK2 IC50
[12] = Homo sapiens, BT-474, 144 h, BT474 cells, 6 days, SRB; read-out: In Vitro Cellular Activity IC50 BT474
[13] = In Vitro Enzyme Assay, cyclin D1/cdk 4, read-out: CDK4 IC50
[14] = In Vitro Enzyme Assay, cyclin B/CDK1, read-out: CDK1 IC50
[15] = In Vitro Enzyme Assay, cyclin E/CDK2, read-out: CDK2 IC50

SMILES | IC50 [1, 8] [µM] | IC50 [2, 9] [µM] | IC50 [3, 10] [µM] | IC50 ([4]; three days) [µM] | melting point | IC50 ([5]; three days) [µM] | IC50 [6, 11] [µM] | IC50 ([7]; three days) [µM] | IC50 [1, 12] [µM] | IC50 ([4]; 3 days) [µM] | IC50 ([5]; 3 days) [µM] | IC50 ([7]; 3 days) [µM] | IC50 [2, 13] [µM] | IC50 [3, 14] [µM] | IC50 [6, 15] [µM]
O=C1NC(=O)c2ccc(I)cc2/C1=C/Nc1ccc(CN2CCCC2)cc1 [Example 126] | 0.9 | 0.66 | > 50 | 2.3 | 186 to 187 °C | 5.1 | 10 | 3.4 |  |  |  |  |  |  | 
COc1cc2c(cc1-c1ccoc1)/C(=C/Nc1ccc(N3CCN(C)CC3)cc1)C(=O)NC2=O [Example 254, 6-Furan-3-yl-7-methoxy-4-{[4-(4-methyl-piperazin-1-yl)-phenylamino]-methylene}-4H-isoquinoline-1,3-dione] | 2.1 | 7.4 | > 50 | 2.4 | 198 to 220 °C | 4.8 | > 50 | 2 |  |  |  |  |  |  | 
CC1CN(c2ccc(N/C=C3\C(=O)NC(=O)c4ccc(Br)cc43)cc2)CC(C)N1 (stereo not drawn) [Example 201] | 1.4 | 4.1 | > 50 | 1.7 | 229 to 230 °C | 1.4 | > 50 | 1.1 |  |  |  |  |  |  | 
CN1CCN(c2ccc(N/C=C3\C(=O)NC(=O)c4ccc(C#Cc5ccsc5)cc43)cc2)CC1 [Example 187, (4Z)-4-({[4-(4-Methylpiperazin-1-yl)phenyl]amino}methylene)-6-(thien-3-ylethynyl)-isoquinoline-1,3(2H,4H)-dione] | 2.9 | 2.3 | 1.7 | 3 | 193 to 194 °C | 8.5 | 3.3 | 1.1 |  |  |  |  |  |  | 
COCC#Cc1ccc2c(c1)/C(=C/Nc1ccc(N3CCN(C)CC3)cc1)C(=O)NC2=O [Example 177, (4Z)-6-(3-Methoxyprop-1-ynyl)-4-({[4-(4-methylpiperazin-1-yl)phenyl]amino}-methylene)isoquinoline-1,3(2H,4H)-dione] | 3.9 | 1.1 | > 50 | 4.1 | 209 to 210 °C | 3.9 | > 50 | 3.1 |  |  |  |  |  |  | 
C[C@@H]1CN(c2ccc(N/C=C3\C(=O)NC(=O)c4ccc(-c5ccc(F)cc5)cc43)cc2F)C[C@H](C)N1 [Example 326, (4Z)-4-[({4-[(3R,5S)-3,5-Dimethylpiperazin-1-yl]-3-fluorophenyl}amino)methylene]-6-(4-fluorophenyl)isoquinoline-1,3(2H,4H)-dione] | 0.98 | 9.2 | 31.4 | 1.8 | 182 to 183 °C | 3.7 | > 50 | 1 |  |  |  |  |  |  | 
CN1CCN(c2ccc(N/C=C3\C(=O)NC(=O)c4ccc(-n5cccc5)cc43)cc2F)CC1 [Example 328, (4Z)-4-({[3-Fluoro-4-(4-methylpiperazin-1-yl)phenyl]amino}methylene)-6-(1H-pyrrol-1-yl)isoquinoline-1,3(2H,4H)-dione] | 1.6 | 0.77 | > 50 | 1.9 | 206 to 207 °C | 8.7 | > 50 | 2.4 |  |  |  |  |  |  | 
Nc1cccc(CN/C=C2\C(=O)NC(=O)c3ccc(Br)cc32)c1 [Example 52, (4Z)-4-{[(3-Aminobenzyl)amino]methylene}-6-bromoisoquinoline-1,3(2H,4H)-dione] | 41 | 24.3 | > 50 | > 50 | 214 to 215 °C | > 50 | 4.5 | 40 |  |  |  |  |  |  | 
COC[C@H]1CCCN1Cc1ccc(N/C=C2\C(=O)NC(=O)c3ccc(-c4ccsc4)cc32)cc1 [Example 331, (4Z)-4-{[(4-{[(2R)-2-(Methoxymethyl)pyrrolidin-1-yl]methyl}phenyl)amino]methylene}-6-thien-3-ylisoquinoline-1,3(2H,4H)-dione] | 3.3 | 0.17 | > 50 | 1.7 | 95 to 96 °C | 3 | > 50 | 1.5 |  |  |  |  |  |  | 
O=C1NC(=O)c2ccc(-c3ccsc3)cc2/C1=C/Nc1ccc(N2CCC(N3CCCC3)CC2)c(F)c1 [Example 406, (4Z)-4-({[3-Fluoro-4-(4-pyrrolidin-1-ylpiperidin-1-yl)phenyl]amino}methylene)-6-thien-3-ylisoquinoline-1,3(2H,4H)-dione] |  | 0.09 | 31.7 |  | 200 to 201 °C |  | 49.7 |  | 3.9 | 3.4 | 2.7 | 2.6 |  |  | 
CN1CCN(c2ccc(N/C=C3\C(=O)NC(=O)c4ccc(-c5cccn5C)cc43)cn2)CC1 [Example 474, (4Z)-4-({[6-(4-Methylpiperazin-1-yl)pyridin-3-yl]amino}methylene)-6-(1-methyl-1H-pyrrol-2-yl)isoquinoline-1,3(2H,4H)-dione] |  |  |  |  | 216 to 217 °C |  |  |  | 7.4 | 4 | 3.8 | 3.5 | 4.2 | > 50 | > 50
NS(=O)(=O)c1ccc(CN/C=C2\C(=O)NC(=O)c3ccc(Br)cc32)cc1 [Example 56, 4-({[(Z)-(6-Bromo-1,3-dioxo-2,3-dihydroisoquinolin-4(1H)-ylidene)methyl]amino}methyl)benzenesulfonamide] | 23 | 0.48 | 16.2 | 27 | 273 to 274 °C | 30 | 1.3 | 28 |  |  |  |  |  |  | 
O=C1NC(=O)c2ccc(-c3ccc(CN4CCCCC4)cc3)cc2C1=CNc1ccc(CN2CCCCC2)cc1 [Example 125, 6-(4-Piperidin-1-ylmethyl-phenyl)-4-[(4-piperidin-1-ylmethyl-phenylamino)-methylene]-4H-isoquinoline-1,3-dione] | 3.9 | 44.4 | > 50 | 1.8 | 159 to 160 °C | 1.1 | > 50 | 1.2 |  |  |  |  |  |  | 
O=Cc1sccc1-c1ccc2c(c1)/C(=C/Nc1ccc(CN3CCCCC3)cc1)C(=O)NC2=O [Example 97] | 3.1 | 1 | > 50 | 2.8 | 224 to 225 °C | 1.9 | 6.7 | 1.5 |  |  |  |  |  |  | 
O=C1NC(=O)c2ccc(Br)cc2/C1=C/Nc1cc(F)c(N2CCN3CCC[C@H]3C2)c(F)c1 [Example 370, (4Z)-6-Bromo-4-[({3,5-difluoro-4-[(8aS)-hexahydropyrrolo[1,2-a]pyrazin-2(1H)-yl]phenyl}amino)methylene]isoquinoline-1,3(2H,4H)-dione] | 6.3 | 21.1 | 42.5 | 6.7 | 190 to 191 °C | 6.4 | > 50 | 4.2 |  |  |  |  |  |  | 
CN1CCCC1c1ccc(N/C=C2\C(=O)NC(=O)c3ccc(-n4cccc4)cc32)nc1 (stereo not drawn) [Example 459] |  |  |  |  | 186 to 196 °C (dec.) |  |  |  | 17.3 | 10.7 | 9.5 | 13 | 3.7 | > 50 | > 50
CN1CCN(c2ccc(N/C=C3\C(=O)NC(=O)c4ccc(-c5ccoc5)cc43)nc2)CC1 [Example 443, (4Z)-6-(3-Furyl)-4-({[5-(4-methylpiperazin-1-yl)pyridin-2-yl]amino}methylene)isoquinoline-1,3(2H,4H)-dione] |  | 0.13 | > 50 |  | 262 to 263 °C |  | > 50 |  | 0.65 |  | 0.85 |  |  |  | 
Nc1ccc(CN/C=C2\C(=O)NC(=O)c3ccc(Br)cc32)cc1O [Example 227, (4Z)-4-{[(4-Amino-3-hydroxybenzyl)amino]methylene}-6-bromoisoquinoline-1,3(2H,4H)-dione] |  | 0.08 | > 50 | > 50 | 245 to 246 °C | 37 | 6.7 | 44 |  |  |  |  |  |  | 
